# From publication PMC4186430, “Modeling of age-dependent amyloid accumulation and γ-secretase inhibition of soluble and insoluble Aβ in a transgenic mouse model of amyloid deposition” (Pharmacology Research & Perspectives, 2013)
# Tests used:
# Plasma unbound fraction = assay type: in vitro ADME; details: observed, read-out: fu,pl (plasma unbound fraction)
# soluble Aβ40 = tested on: soluble Aβ40; design: method as in Townsend et al. [2010]; details: 12-month-old Tg2576 mice; 3-month MRK-560 treatment; ref Townsend et al. [2010]; cited from earlier work
# soluble Aβ40 production = assay: PKPD turnover model of MRK-560 inhibition of soluble Aβ40 production (models A, B, C); assay type: in vivo, Tg2576 transgenic mice; details: for IC50: Mus musculus
# Description: In a second step, drug effect data were added to the AP analysis in order to develop an integrated PKPD model that incorporated both age-dependent AP and an age-dependent drug effect. To this end, the initially developed logistic model (eq. 3) was combined with a turnover model (Dayneka et al. [1993]; Jusko and Ko [1994]). This part of the analysis was only performed for soluble and insoluble Aβ40, as drug effect data for Aβ42 were not available from all studies. In this approach, the age-dependent AP causing an increase in soluble Aβ40 production (Kin,sol) was described following equations (4 and 5): [drawing 4] (4) [drawing 5] (5) in which Kin,sol and kout,sol corresponded to the production and loss of soluble Aβ40, respectively.
# The inhibitory effect of MRK-560 on soluble Aβ40 was modeled using a turnover model (eq. 4), where the production of soluble Aβ40 was inhibited by the drug concentration. The model took into account the time delay between changes in plasma concentration of the drug and changes insoluble Aβ40 levels. Three types of drug effect models were evaluated: (A) absolute (eq. 6), (B) relative change from the baseline (eq. 7), and (C) modified relative change from the baseline (eq. 7). In model B the IC50(solAβ40) was constant, while in model C it was dependent on the soluble Aβ40 levels via a linear function as shown in equation (8).
# Kin,sol corresponded to the age-dependent production of soluble Aβ40, kout,sol corresponded to the loss of soluble Aβ40, Imax was a maximum drug-induced soluble Aβ40 reduction (either absolute or relative reduction from the baseline for eqs. 6 and 7, respectively), CBr represented the brain concentrations, IC50 was a concentration which induced half of the maximum inhibition, while AP corresponded to the AP, described using equation (3). Additionally, parameter SL represented a slope of the linear relationship between absolute Aβ40 levels and IC50.
# Changes in soluble Aβ40 were assumed to change the production of insoluble Aβ40. This effect was modeled using a turnover model and was described using equations (9–11): [drawing 9] (9) [drawing 10] (10) [drawing 11] (11) where Kin,insol was the production of insoluble Aβ40, which was dependent on the soluble Aβ40 levels, kout,insol was the loss of insoluble Aβ40, and SCALE was the scaling function between soluble and insoluble Aβ40 levels. Similar as in equation (3), α2 from equation (11) was the upper asymptote in the logistic function, ECi2 was a point of inflection and P2 was the slope parameter. A graphical representation of the PKPD model can be found in Figure 1.
# All modeling analyses were performed in NONMEM (version 7.1.0, ICON Development Solutions, Ellicott City, MD [Schoemaker and Cohen [1996]]). The best models were chosen based on the analysis of their objective function, the precision of parameter estimates, and goodness-of-fit plots. The analysis of NONMEM output was performed using R software (R Development Core Team [2008]) and Xpose4 package (Jonsson and Karlsson [1998]). The 90% prediction intervals were calculated using the visual predictive check (VPC) as described by (Post et al. [2008]). In brief, 1000 simulations of the data were performed using final parameter estimates and 5th, 50th, and 95th percentiles were calculated.
# [1] = model A (absolute drug effect), estimate (SE%)
smiles,measurement,setting,value
"O=S(=O)(NC1CCC(c2cc(F)ccc2F)(S(=O)(=O)c2ccc(Cl)cc2)CC1)C(F)(F)F (stereo not drawn) [MRK-560, N-[cis-4-[(4-chlorophenyl)-sulfonyl]-4-(2,5-difluorophenyl)cyclohexyl]-1,1,1-trifluoromethanesulfonamide]",fraction unbound,Plasma unbound fraction,0.004
same,decrease in soluble Aβ40 levels,soluble Aβ40,63%
same,IC50,soluble Aβ40 production; [1],90 nM
same,IC50,"soluble Aβ40 production; model B (relative drug effect, constant IC50), estimate (SE%)",190 nM
same,IC50,"soluble Aβ40 production; model C, 5-month-old Tg2576 mice, brain concentration",110 nM
same,IC50,"soluble Aβ40 production; model C, 25-month-old Tg2576 mice, brain concentration",12000 nM
same,Imax,soluble Aβ40 production; final model (model C),86%
same,Imax,soluble Aβ40 production; [1],59 (4) pg/mg
same,Imax,"soluble Aβ40 production; model B (relative drug effect), estimate (SE%)",88 (10) %
